“And” between values parts separate entries of the source, which are not always exact repeats. Equal values may be shown once. Read-outs that look alike come from different tables or passages of the source.
What was measured:
[1] = system: OAT1/3; assay: Bottom-up IVIVE of CLint,sec, CLsec and CLr, relative expression factor (REF) approach; parameters: species or system human; conditions: for CLint,sec Predicted 0% HSA / CLint,sec Predicted 1% HSA / CLint,sec Predicted 4% HSA / CLsec Predicted 0% HSA / CLsec Predicted 1% HSA / CLsec Predicted 4% HSA: REF approach
Source text: (§1) The relative expression and relative activity factor (REF and RAF) are unitless scalers that account for in vivo versus in vitro differences in the abundance and activity of OAT1/3 and are used for IVIVE of in vitro CLint,u,active. REF was derived from the OAT1/3 expression ratio between the in vivo human kidney cortex to the in vitro ciPTEC-OAT1/3, as shown in eq 7: [drawing 8] 7 Absolute abundance of OAT1 and OAT3 in the human kidney cortex was previously quantified by our group using the filter-aided sample preparation protocol and global proteomic analysis.[44]

[2] = target: T1, OAT3 (Homo sapiens, UniProt Q8TCC7); assay: OAT3 uptake study in ciPTEC-OAT3; conditions: for ratio of CLint,u,active (R) (HSA/control) 1%: OAT3, 1% HSA vs control; for ratio of CLint,u,active (R) (HSA/control) 4%: OAT3, 4% HSA vs control; for Vb,max OAT3, Active and Passive Uptake: eq 4 fitted to CLint,u; for Vb,max OAT3, Active and Passive Uptake / Vb,max OAT3, Active Uptake Only: mean ± S.D.; for Vb,max OAT3, Active Uptake Only: eq 4 fitted to CLint,u,active
T1 sequence (Q8TCC7 1-542): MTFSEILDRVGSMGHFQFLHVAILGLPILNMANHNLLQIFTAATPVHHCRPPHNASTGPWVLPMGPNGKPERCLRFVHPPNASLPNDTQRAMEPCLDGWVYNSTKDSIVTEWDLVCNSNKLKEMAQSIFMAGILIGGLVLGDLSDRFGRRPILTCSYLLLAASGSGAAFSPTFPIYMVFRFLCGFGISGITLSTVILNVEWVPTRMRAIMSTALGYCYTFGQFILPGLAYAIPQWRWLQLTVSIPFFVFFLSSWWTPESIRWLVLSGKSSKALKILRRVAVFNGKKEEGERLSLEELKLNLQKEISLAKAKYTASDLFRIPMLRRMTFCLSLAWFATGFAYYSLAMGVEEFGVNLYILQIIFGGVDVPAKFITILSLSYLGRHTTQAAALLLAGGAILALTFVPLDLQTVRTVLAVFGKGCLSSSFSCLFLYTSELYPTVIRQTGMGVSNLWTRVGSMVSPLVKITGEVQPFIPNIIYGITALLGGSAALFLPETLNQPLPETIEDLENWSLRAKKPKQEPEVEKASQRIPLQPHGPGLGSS

[3] = Observed in vivo (clinical) renal, secretion and intrinsic secretion clearance; conditions: in vivo; for CLint,sec Observed: back-calculated from clinical data
[4] = in vivo, plasma renal clearance, clinical data; cited from earlier work
[5] = target: human serum albumin (Homo sapiens, UniProt P02768); assay: Extent of albumin binding: high throughput equilibrium dialysis (fu,inc, Kd); format: in vitro ADME; conditions: mean ± SD; for Kd: estimated using eq 3 from measured fu,inc; for fraction unbound at 6 h: human, equilibrium dialysis 37 °C 6 h
Chain of human serum albumin (P02768 25-609): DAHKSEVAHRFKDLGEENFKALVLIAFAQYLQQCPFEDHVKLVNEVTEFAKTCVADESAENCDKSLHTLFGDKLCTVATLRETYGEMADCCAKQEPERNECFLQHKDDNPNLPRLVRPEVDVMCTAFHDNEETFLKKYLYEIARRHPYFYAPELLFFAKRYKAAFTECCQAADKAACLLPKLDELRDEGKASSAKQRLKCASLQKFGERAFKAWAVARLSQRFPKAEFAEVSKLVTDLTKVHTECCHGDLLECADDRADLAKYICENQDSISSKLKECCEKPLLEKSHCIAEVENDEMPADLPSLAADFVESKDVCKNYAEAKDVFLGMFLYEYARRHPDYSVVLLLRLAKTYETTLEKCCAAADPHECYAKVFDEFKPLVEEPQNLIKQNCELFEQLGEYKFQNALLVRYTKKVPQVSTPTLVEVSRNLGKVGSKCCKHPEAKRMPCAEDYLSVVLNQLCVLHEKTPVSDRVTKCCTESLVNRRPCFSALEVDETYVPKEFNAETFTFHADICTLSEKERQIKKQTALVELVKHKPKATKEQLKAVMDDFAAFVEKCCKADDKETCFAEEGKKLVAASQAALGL
Protocol: Briefly, cellulose membranes with MWCO of 12–14 kDa were submerged in distilled water for 1 h, followed by 20% ethanol/distilled water for at least 20 min. Prior to the start of the experiment, cellulose membranes were rinsed in distilled water and submerged in blank DPBS for 15 min. The HTDialysis device was assembled according to the manufacturer’s instructions (https://www.htdialysis.com). Blank DPBS was first added to the receiver side of the dialysis membranes, followed by DPBS spiked with HSA and the OAT1/3 substrate to the donor side. Each HSA concentration was tested in triplicates. The HTDialysis device was sealed with an adhesive sealing film and incubated in a water bath at 37 °C for 6 h shaken at 150 rpm. Once the assay was completed, aliquots from both receiver and donor wells were transferred to a 96-well plate and stored at −80 °C until analysis. DPBS spiked with the OAT1/3 substrate from both before and after incubation was stored to assess the recovery and stability of the samples. To prepare the sample for analysis, donor and receiver samples were matrix-matched and quenched with ice-cold acetonitrile containing an internal standard (0.5 μM gemfibrozil or 0.05 μM buspirone).

[6] = system: OAT1/3; assay: Bottom-up IVIVE of CLint,sec, CLsec and CLr, relative activity factor (RAF) approach; parameters: species or system human
Source text: as §1

[7] = target: T2, OAT1 (Homo sapiens, UniProt Q4U2R8); assay: OAT1 uptake study in ciPTEC-OAT1; conditions: for OAT1 substrate status (uptake in ciPTEC-OAT1): control vs probenecid 300 μM
T2 sequence (Q4U2R8 1-563): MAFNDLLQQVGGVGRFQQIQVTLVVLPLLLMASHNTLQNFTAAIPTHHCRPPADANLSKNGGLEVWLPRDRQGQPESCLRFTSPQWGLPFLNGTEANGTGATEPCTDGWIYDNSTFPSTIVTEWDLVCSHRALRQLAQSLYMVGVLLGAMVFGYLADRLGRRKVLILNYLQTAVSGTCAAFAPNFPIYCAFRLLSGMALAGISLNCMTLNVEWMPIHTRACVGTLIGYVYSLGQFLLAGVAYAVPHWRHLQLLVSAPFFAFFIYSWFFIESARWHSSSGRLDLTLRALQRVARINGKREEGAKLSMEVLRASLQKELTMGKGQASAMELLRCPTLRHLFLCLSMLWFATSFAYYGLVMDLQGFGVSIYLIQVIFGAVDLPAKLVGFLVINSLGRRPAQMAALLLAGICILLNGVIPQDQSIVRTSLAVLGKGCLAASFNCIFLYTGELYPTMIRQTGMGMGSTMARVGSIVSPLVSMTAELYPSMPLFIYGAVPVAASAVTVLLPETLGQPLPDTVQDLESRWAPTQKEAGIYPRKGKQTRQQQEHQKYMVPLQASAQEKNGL

[8] = human, in vivo
[9] = 1% human serum albumin in DPBS, 1% HSA, read-out: fu,inc (1%)
[10] = 4% HSA in DPBS, 4% HSA, read-out: fu,inc (4%)

Row | SMILES | CLint,sec Predicted 0% HSA [1] | CLint,sec Predicted 1% HSA [1] | CLint,sec Predicted 4% HSA [1] | CLsec Predicted 0% HSA [1] | CLsec Predicted 1% HSA [1] | CLsec Predicted 4% HSA [1] | ratio of CLint,u,active (R) (HSA/control) 1% [2] | ratio of CLint,u,active (R) (HSA/control) 4% [2] | Vb,max OAT3, Active and Passive Uptake [2] | Vb,max OAT3, Active Uptake Only [2] | CLr Observed [4] | Kd [5] | fraction unbound at 6 h [5, 9] | fraction unbound at 6 h [5, 10] | CLint,sec Predicted 0% HSA [6] | CLint,sec Predicted 1% HSA [6] | CLint,sec Predicted 4% HSA [6] | CLsec Predicted 0% HSA [6] | CLsec Predicted 1% HSA [6] | CLsec Predicted 4% HSA [6] | also measured
1 | CCCc1nc(C(C)(C)O)c(C(=O)O)n1Cc1ccc(-c2ccccc2-c2nnn[nH]2)cc1 [olmesartan] | 7.92 L/h | 85.2 L/h | 284 L/h | 0.02 L/h | 0.22 L/h | 0.74 L/h | 10.5 ± 2.3 | 28 and 28.1 ± 3.0 | 46.2 ± 12.3 pmol/min/mg | 44.2 ± 12.3 pmol/min/mg | 0.61 L/h | 1.43 ± 0.1 µM | 0.011 ± 0.001 | 0.002 ± 0.0002 | 34.2 L/h | 355 L/h | 976 L/h | 0.09 L/h | 0.92 L/h | 2.40 L/h | Predicted in vivo percentage transported via OAT1 (versus OAT3) ([1]; 4% HSA, REF scaler): 33.1%; Predicted in vivo percentage transported via OAT1 (versus OAT3) ([1]; control phase (0% HSA)): 7.9%; OAT3 substrate status (uptake in ciPTEC-OAT3) ([2]; control vs probenecid 300 μM): dual OAT1/3 substrates; CLint,sec Observed [3]: 229 L/h; CLint,sec Observed ([3]; listed as Olmesartan): 228 L/h; CLsec Observed ([3]; plasma secretion clearance): 0.59 L/h; ratio of CLint,u,active (R) (HSA/control) 1% ([7]; OAT1, 1% HSA vs control, unbound concentration kept constant): 17.9 ± 4.0; ratio of CLint,u,active (R) (HSA/control) 4% ([7]; OAT1, 4% HSA vs control, unbound concentration kept constant): 122 and 122 ± 42; OAT1 substrate status (uptake in ciPTEC-OAT1) [7]: dual OAT1/3 substrates; Vb,max OAT1, Active and Passive Uptake ([7]; eq 4 fitted to CLint,u, mean ± S.D.): 75.7 ± 15.5 pmol/min/mg; Vb,max OAT1, Active Uptake Only ([7]; eq 4 fitted to CLint,u,active, Kd,m fixed from OAT3 data, mean ± S.D.): 72.7 ± 15.0 pmol/min/mg
2 | CCCN(CCC)S(=O)(=O)c1ccc(C(=O)O)cc1 [probenecid] | – | – | – | – | – | – | – | – | – | – | – | – | – | – | – | – | – | – | – | – | Effect on OAT3-mediated uptake of the substrates ([2]; probenecid 300 μM, 0% HSA): significantly reduced
3 | CC(C)c1nc(N(C)S(C)(=O)=O)nc(-c2ccc(F)cc2)c1/C=C/[C@@H](O)C[C@@H](O)CC(=O)O [rosuvastatin] | 6.80 L/h | 13.6 L/h | 17.7 L/h | 0.78 L/h | 1.52 L/h | 1.96 L/h | 2.12 ± 0.58 | 2.7 and 2.68 ± 0.62 | 290 ± 101 pmol/min/mg | 281 ± 96 pmol/min/mg | 11.9 L/h | 127 ± 5.6 µM | 0.435 ± 0.041 | 0.18 ± 0.009 | 34.3 L/h | 68.3 L/h | 89.0 L/h | 3.64 L/h | 6.66 L/h | 8.27 L/h | CLint,sec Observed [8]: 130 L/h; CLsec Observed [8]: 11.1 L/h; OAT1 substrate status (uptake in ciPTEC-OAT1) [7]: did not show any appreciable uptake
